The text below walks through data of USRE42890E1, “Furazanobenzimidazoles” (Basilea Pharmaceutica AG, priority 2003, dated 2011).

In one test the test system is Jurkat. The test can be described thus: MTS proliferation assay, Jurkat. Particulars: 72 h incubation, read-out: MTS proliferation assay IC 50 Jurkat. The test is classed as cell-based, human. Summed up:
(§1)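 Absorbance at 492 nm after 3 h with MTS reagent gave the proliferation read-out. Before that, cells in RPMI-1640 complete medium (5% or 10% FCS) were treated 72 h with compound at four final concentrations, 0.3 to 10 μM.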
For orientation: Formazan colour is commonly taken as a measure of viable cells.
Consider `Nc1nonc1-c1nc2ccccc2n1CC(=NO)c1ccccc1Cl` (mixture of isomers) [Example 33], for which the IC50 is above 1000 nM.

Take `CON=C(Cn1c(-c2nonc2N)nc2ccccc21)c1ccc(Cl)cc1` (mixture of isomers) [Example 22]: the IC50 lay in the range of 100 to 1000 nM.

A further test has as its system HeLa. The test can be described thus: MTS proliferation assay, HeLa. It counts as cell-based, human. The conditions noted are these: 72 h incubation, read-out: MTS proliferation assay IC 50 HeLa. Summed up:
as §1
As for `Nc1nonc1-c1nc2ccccc2n1CC(=NO)c1ccccc1Cl` (mixture of isomers) [Example 33], the IC50 was above 1000 nM.

In the case of `CON=C(Cn1c(-c2nonc2N)nc2ccccc21)c1ccc(Cl)cc1` (mixture of isomers) [Example 22], the IC50 lay in the range of 100 to 1000 nM.

A further test has as its system MRC5. The test can be described thus: MTS proliferation assay, MRC5. It counts as cell-based. Particulars: MRC5, 72 h incubation; read-out: MTS proliferation assay IC 50 MRC5. The essentials: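 Read-out: MTS absorbance at 492 nm after 3 h reagent incubation. Before that, cells grew 72 h at 37° C/7.5% CO2 with test compounds at final concentrations of 10 μM, 3 μM, 1 μM and 0.3 μM, added 24 h post-seeding.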
Take `Nc1nonc1-c1nc2ccccc2n1CC(=NO)c1ccccc1Cl` (mixture of isomers) [Example 33]: the IC50 was above 1000 nM.

As to `CON=C(Cn1c(-c2nonc2N)nc2ccccc21)c1ccc(Cl)cc1` (mixture of isomers) [Example 22], the IC50 fell in the range of 100 to 1000 nM.

For the next test, the system named is adherent cells or suspension cells. The test can be described thus: Hoechst 33342 nuclear staining (fraction of apoptotic nuclei). The test is classed as cell-based. On the set-up: key: 0 relating to no activity; 1 relating to weak activity comprising less than 70% of the cells; score 2 relating to strong activity comprising more than 70% of the cells. Particulars: H460, conc 0.01 μm. As for the experimental part: Cell lines are cultured in RPMI-1640 tissue culture medium containing either 5% or 10% fetal calf serum, 0.05 mM 2-mercaptoethanol, 2 mM glutamine and penicillin/streptomycin 50 μg/ml (complete medium) (Sigma, Buchs, Switzerland). General growth conditions are 37° C. and 7.5% CO2.
This assay is performed in 96 well tissue culture plates. Appropriate number of cells (adherent cells: 3-5*10^3, suspension cells: 8-10*10^3) are being seeded out in 80 μl complete medium. Adherent cells are incubated for 24 h for proper spreading out before addition of test compounds while suspension cells are immediately treated with test compounds after seeding out. The test compounds are added in 20 μl complete medium containing max 5% DMSO. […] After 24 h or 48 h incubation at culture conditions, 10 μl medium containing Hoechst 33342 dye (Sigma B-2261) at 2-5 μg/ml are added to each well. The assay plates are then further incubated for 30 minutes and subsequently analyzed with a standard inverted fluorescence microscope.
The readout allows the determination of the fraction of apoptotic nuclei as well as other morphological criteria specific for apoptosis as a function of the treatment. The following scores are used: 0 relating to no activity, 1 relating to weak activity comprising less than 70% of the cells and score 2 relating to strong activity comprising more than 70% of the cells.
As to `Nc1nonc1-c1nc2ccccc2n1CC(=NO)c1ccccc1Cl` (mixture of isomers) [Example 33], the “Hoechst 33342 nuclear staining score” value stood at 0.

Consider `CON=C(Cn1c(-c2nonc2N)nc2ccccc21)c1ccc(Cl)cc1` (mixture of isomers) [Example 22], for which the “Hoechst 33342 nuclear staining score” value is reported as 0.

The test is the same for the next values; noted with them: H460, conc 0.1 μm.
Take `Nc1nonc1-c1nc2ccccc2n1CC(=NO)c1ccccc1Cl` (mixture of isomers) [Example 33]: the “Hoechst 33342 nuclear staining score” value is on record as 0.

For the compound `CON=C(Cn1c(-c2nonc2N)nc2ccccc21)c1ccc(Cl)cc1` (mixture of isomers) [Example 22], the “Hoechst 33342 nuclear staining score” value turned out to be 0.

The same test, now with this note: H460, conc 1 μm.
With `Nc1nonc1-c1nc2ccccc2n1CC(=NO)c1ccccc1Cl` (mixture of isomers) [Example 33], the “Hoechst 33342 nuclear staining score” value was found to be 0.

`CON=C(Cn1c(-c2nonc2N)nc2ccccc21)c1ccc(Cl)cc1` (mixture of isomers) [Example 22]: the “Hoechst 33342 nuclear staining score” value is 0.

Still in this test, the particulars now being: HeLa, conc 0.01 μm.
On to `Nc1nonc1-c1nc2ccccc2n1CC(=NO)c1ccccc1Cl` (mixture of isomers) [Example 33], for which the “Hoechst 33342 nuclear staining score” value worked out at 0.

Consider `CON=C(Cn1c(-c2nonc2N)nc2ccccc21)c1ccc(Cl)cc1` (mixture of isomers) [Example 22], for which the “Hoechst 33342 nuclear staining score” value came to 0.

Still in this test, the particulars now being: HeLa, conc 0.1 μm.
`Nc1nonc1-c1nc2ccccc2n1CC(=NO)c1ccccc1Cl` (mixture of isomers) [Example 33]: the “Hoechst 33342 nuclear staining score” value turned out to be 0.

As to `CON=C(Cn1c(-c2nonc2N)nc2ccccc21)c1ccc(Cl)cc1` (mixture of isomers) [Example 22], the “Hoechst 33342 nuclear staining score” value turned out to be 0.

Still in this test, the particulars now being: HeLa, conc 1 μm.
In the case of `Nc1nonc1-c1nc2ccccc2n1CC(=NO)c1ccccc1Cl` (mixture of isomers) [Example 33], the “Hoechst 33342 nuclear staining score” value is listed as 0.

With `CON=C(Cn1c(-c2nonc2N)nc2ccccc21)c1ccc(Cl)cc1` (mixture of isomers) [Example 22], the “Hoechst 33342 nuclear staining score” value is reported as 2 (score 2 relating to strong activity comprising more than 70% of the cells).

The same test, now with this note: Jily, conc 0.01 μm.
As to `Nc1nonc1-c1nc2ccccc2n1CC(=NO)c1ccccc1Cl` (mixture of isomers) [Example 33], the “Hoechst 33342 nuclear staining score” value is listed as 0.

Still in this test, the particulars now being: Jily, conc 0.1 μm.
On to `Nc1nonc1-c1nc2ccccc2n1CC(=NO)c1ccccc1Cl` (mixture of isomers) [Example 33], for which the “Hoechst 33342 nuclear staining score” value was 0.

Still in this test, the particulars now being: Jily, conc 1 μm.
Turning to `Nc1nonc1-c1nc2ccccc2n1CC(=NO)c1ccccc1Cl` (mixture of isomers) [Example 33], the “Hoechst 33342 nuclear staining score” value amounted to 0.

Staying with this test, now noted: Jurkat, conc 0.01 μm.
In the case of `Nc1nonc1-c1nc2ccccc2n1CC(=NO)c1ccccc1Cl` (mixture of isomers) [Example 33], the “Hoechst 33342 nuclear staining score” value came to 0.

Turning to `CON=C(Cn1c(-c2nonc2N)nc2ccccc21)c1ccc(Cl)cc1` (mixture of isomers) [Example 22], the “Hoechst 33342 nuclear staining score” value is 0.

Still in this test, the particulars now being: Jurkat, conc 0.1 μm.
With `Nc1nonc1-c1nc2ccccc2n1CC(=NO)c1ccccc1Cl` (mixture of isomers) [Example 33], the “Hoechst 33342 nuclear staining score” value was 0.

For `CON=C(Cn1c(-c2nonc2N)nc2ccccc21)c1ccc(Cl)cc1` (mixture of isomers) [Example 22], the “Hoechst 33342 nuclear staining score” value is on record as 0.

Staying with this test, now noted: Jurkat, conc 1 μm.
For the compound `Nc1nonc1-c1nc2ccccc2n1CC(=NO)c1ccccc1Cl` (mixture of isomers) [Example 33], the “Hoechst 33342 nuclear staining score” value is 0.

Consider `CON=C(Cn1c(-c2nonc2N)nc2ccccc21)c1ccc(Cl)cc1` (mixture of isomers) [Example 22], for which the “Hoechst 33342 nuclear staining score” value is on record as 2 (score 2 relating to strong activity comprising more than 70% of the cells).

Staying with this test, now noted: MRC5, conc 0.01 μm.
For the compound `Nc1nonc1-c1nc2ccccc2n1CC(=NO)c1ccccc1Cl` (mixture of isomers) [Example 33], the “Hoechst 33342 nuclear staining score” value was 0.

In the case of `CON=C(Cn1c(-c2nonc2N)nc2ccccc21)c1ccc(Cl)cc1` (mixture of isomers) [Example 22], the “Hoechst 33342 nuclear staining score” value stood at 0.

Staying with this test, now noted: MRC5, conc 0.1 μm.
Consider `Nc1nonc1-c1nc2ccccc2n1CC(=NO)c1ccccc1Cl` (mixture of isomers) [Example 33], for which the “Hoechst 33342 nuclear staining score” value was 0.

In the case of `CON=C(Cn1c(-c2nonc2N)nc2ccccc21)c1ccc(Cl)cc1` (mixture of isomers) [Example 22], the “Hoechst 33342 nuclear staining score” value was determined as 0.

The same test, now with this note: MRC5, conc 1 μm.
For the compound `Nc1nonc1-c1nc2ccccc2n1CC(=NO)c1ccccc1Cl` (mixture of isomers) [Example 33], the “Hoechst 33342 nuclear staining score” value is reported as 0.

For `CON=C(Cn1c(-c2nonc2N)nc2ccccc21)c1ccc(Cl)cc1` (mixture of isomers) [Example 22], the “Hoechst 33342 nuclear staining score” value is recorded as 0.

The same test, now with this note: PBLs, conc 0.01 μm.
As for `Nc1nonc1-c1nc2ccccc2n1CC(=NO)c1ccccc1Cl` (mixture of isomers) [Example 33], the “Hoechst 33342 nuclear staining score” value was 0.

Consider `CON=C(Cn1c(-c2nonc2N)nc2ccccc21)c1ccc(Cl)cc1` (mixture of isomers) [Example 22], for which the “Hoechst 33342 nuclear staining score” value is listed as 0.

The test is the same for the next values; noted with them: PBLs, conc 0.1 μm.
Consider `Nc1nonc1-c1nc2ccccc2n1CC(=NO)c1ccccc1Cl` (mixture of isomers) [Example 33], for which the “Hoechst 33342 nuclear staining score” value came to 0.

Regarding `CON=C(Cn1c(-c2nonc2N)nc2ccccc21)c1ccc(Cl)cc1` (mixture of isomers) [Example 22], the “Hoechst 33342 nuclear staining score” value turned out to be 0.

Staying with this test, now noted: PBLs, conc 1 μm.
In the case of `Nc1nonc1-c1nc2ccccc2n1CC(=NO)c1ccccc1Cl` (mixture of isomers) [Example 33], the “Hoechst 33342 nuclear staining score” value is given as 0.

Regarding `CON=C(Cn1c(-c2nonc2N)nc2ccccc21)c1ccc(Cl)cc1` (mixture of isomers) [Example 22], the “Hoechst 33342 nuclear staining score” value is recorded as 0.
